According to ChEMBL document CHEMBL1201862, “PubChem BioAssay data set” (2004):
Calls of active or inactive are those of the source.

Experiments:
[1] = biological target: T1, RNA-binding protein pos-1 (Caenorhabditis elegans, UniProt G5EF15); test: inhibitors of POS-1/mex-3 RNA binding, dose response, biochemical, fluorescence polarization (AID 1964);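 note: purified POS-1 fused to maltose binding protein made in E. coli; potency of compounds blocking POS-1 binding to fluorescent RNA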
T1 sequence (G5EF15 whole entry): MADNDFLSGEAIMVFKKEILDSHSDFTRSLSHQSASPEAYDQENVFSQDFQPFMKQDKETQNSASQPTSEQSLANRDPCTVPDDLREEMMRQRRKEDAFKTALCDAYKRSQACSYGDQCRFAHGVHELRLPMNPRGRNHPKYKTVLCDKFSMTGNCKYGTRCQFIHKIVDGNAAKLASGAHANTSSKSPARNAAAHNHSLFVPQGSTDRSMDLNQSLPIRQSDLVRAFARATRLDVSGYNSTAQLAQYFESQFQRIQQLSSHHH

[2] = biological target: T2, Zinc finger protein mex-5 (Caenorhabditis elegans, UniProt Q9XUB2); test: MEX-5/TCR-2 RNA interaction inhibitors, dose response, biochemical, C. elegans, fluorescence polarization (AID 1960)
T2 sequence (Q9XUB2 whole entry): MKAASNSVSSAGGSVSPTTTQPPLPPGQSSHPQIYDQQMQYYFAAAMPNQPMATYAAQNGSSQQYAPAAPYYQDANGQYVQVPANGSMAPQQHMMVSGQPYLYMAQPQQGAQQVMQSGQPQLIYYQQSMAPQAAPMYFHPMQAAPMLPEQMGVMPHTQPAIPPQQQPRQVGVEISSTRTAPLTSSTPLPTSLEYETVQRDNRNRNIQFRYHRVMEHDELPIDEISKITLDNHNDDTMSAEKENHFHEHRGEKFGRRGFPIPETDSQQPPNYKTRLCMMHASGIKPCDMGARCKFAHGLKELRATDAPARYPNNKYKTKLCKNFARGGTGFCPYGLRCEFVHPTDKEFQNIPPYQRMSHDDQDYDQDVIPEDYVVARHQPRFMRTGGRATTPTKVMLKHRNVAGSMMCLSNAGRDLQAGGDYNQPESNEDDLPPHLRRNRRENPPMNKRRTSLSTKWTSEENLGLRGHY

Beta-lactamase [3] = biological target: Beta-lactamase (Salmonella choleraesuis (strain SC-B67), UniProt Q5J463)
CHO = test: cytotoxicity in TLR9-MyD88 CHO cells, dose response, cytotoxicity control for TLR9-MyD88 binding inhibitor project, cell-based, luminescence (AID 588339); type: functional, hamster; details: Cricetulus griseus;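 note: CHO cells stably coexpressing TLR9 and MyD88 fusions from primary screen; compound exposure lasted 48 hours before viability readout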
Beta Lactamase = Beta Lactamase (Pseudomonas aeruginosa, UniProt Q932Y6); test: beta-lactamase reporter inhibitor potency, dose response, artefact control for TLR9-MyD88 binding inhibitor project, BLA reporter cells, FRET fluorescence (AID 588341); type: cell-based;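 note: cell based assay in CHO-K1 cells stably expressing beta-lactamase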
Beta-lactamase [4] = biological target: Beta-lactamase (Pseudomonas aeruginosa, UniProt Q79MP6);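 note: biochemical dose-response test of metallo-beta-lactamase enzyme inhibition, read out by epi-absorbance; purified recombinant IMP-1 metallo-beta-lactamase with nitrocefin as substrate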
[5] = biological target: T3, High affinity choline transporter 1 (Homo sapiens, UniProt Q9GZV3); test: CHT activators, dose response, cell-based, 10-point CRC, membrane potential dye (AID 602376); type: functional
T3 sequence (Q9GZV3 whole entry): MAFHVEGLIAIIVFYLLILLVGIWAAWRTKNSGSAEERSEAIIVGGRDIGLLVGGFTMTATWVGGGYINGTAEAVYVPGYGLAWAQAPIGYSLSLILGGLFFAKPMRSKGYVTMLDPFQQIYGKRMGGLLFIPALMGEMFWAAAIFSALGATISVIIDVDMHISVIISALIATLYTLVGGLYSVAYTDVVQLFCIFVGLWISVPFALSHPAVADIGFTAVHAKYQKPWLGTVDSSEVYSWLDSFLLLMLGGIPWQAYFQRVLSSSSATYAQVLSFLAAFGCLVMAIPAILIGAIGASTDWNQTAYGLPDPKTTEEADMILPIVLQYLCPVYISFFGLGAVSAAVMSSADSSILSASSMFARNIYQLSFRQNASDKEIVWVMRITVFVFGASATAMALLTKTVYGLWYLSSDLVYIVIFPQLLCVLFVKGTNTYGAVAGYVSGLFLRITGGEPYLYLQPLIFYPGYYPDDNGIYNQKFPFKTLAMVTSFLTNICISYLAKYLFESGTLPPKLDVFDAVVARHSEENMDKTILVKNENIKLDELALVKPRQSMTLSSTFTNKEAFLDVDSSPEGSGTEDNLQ

[6] = biological target: Glycogen synthase kinase-3 beta (Homo sapiens, UniProt P49841); test: Inhibition of Human GSK-3 beta Activity Measured in Biochemical System Using Microfluidics - 2063-05_Inhibitor_Dose_DryPowder_Activity_Set2. [Related pubchem assays (depositor defined):AID2709]
[7] = biological target: Cyclin-dependent kinase 5/CDK5 activator 1 (Homo sapiens, UniProt Q00535); test: CDK5-p25 kinase inhibitors, specificity check, dose response, selectivity assay for GSK-3 alpha inhibitor project, biochemical, microfluidic mobility shift, dry powder (AID 588430)
[8] = biological target: Glycogen synthase kinase-3 alpha (Homo sapiens, UniProt P49840); test: Inhibition of Human GSK-3 alpha Activity Measured in Biochemical System Using Microfluidics - 2063-06_Inhibitor_Dose_DryPowder_Activity_Set2. [Related pubchem assays (depositor defined):AID2709]
[9] = biological target: T4, Sentrin-specific protease 6 (Homo sapiens, UniProt Q9GZR1); test: SAR Analysis of small molecule inhibitors of Sentrin-specific protease 6 (SENP6) using a Luminescent assay. [Related pubchem assays (depositor defined):AID2582, AID2599]; type: functional
T4 sequence (Q9GZR1 whole entry): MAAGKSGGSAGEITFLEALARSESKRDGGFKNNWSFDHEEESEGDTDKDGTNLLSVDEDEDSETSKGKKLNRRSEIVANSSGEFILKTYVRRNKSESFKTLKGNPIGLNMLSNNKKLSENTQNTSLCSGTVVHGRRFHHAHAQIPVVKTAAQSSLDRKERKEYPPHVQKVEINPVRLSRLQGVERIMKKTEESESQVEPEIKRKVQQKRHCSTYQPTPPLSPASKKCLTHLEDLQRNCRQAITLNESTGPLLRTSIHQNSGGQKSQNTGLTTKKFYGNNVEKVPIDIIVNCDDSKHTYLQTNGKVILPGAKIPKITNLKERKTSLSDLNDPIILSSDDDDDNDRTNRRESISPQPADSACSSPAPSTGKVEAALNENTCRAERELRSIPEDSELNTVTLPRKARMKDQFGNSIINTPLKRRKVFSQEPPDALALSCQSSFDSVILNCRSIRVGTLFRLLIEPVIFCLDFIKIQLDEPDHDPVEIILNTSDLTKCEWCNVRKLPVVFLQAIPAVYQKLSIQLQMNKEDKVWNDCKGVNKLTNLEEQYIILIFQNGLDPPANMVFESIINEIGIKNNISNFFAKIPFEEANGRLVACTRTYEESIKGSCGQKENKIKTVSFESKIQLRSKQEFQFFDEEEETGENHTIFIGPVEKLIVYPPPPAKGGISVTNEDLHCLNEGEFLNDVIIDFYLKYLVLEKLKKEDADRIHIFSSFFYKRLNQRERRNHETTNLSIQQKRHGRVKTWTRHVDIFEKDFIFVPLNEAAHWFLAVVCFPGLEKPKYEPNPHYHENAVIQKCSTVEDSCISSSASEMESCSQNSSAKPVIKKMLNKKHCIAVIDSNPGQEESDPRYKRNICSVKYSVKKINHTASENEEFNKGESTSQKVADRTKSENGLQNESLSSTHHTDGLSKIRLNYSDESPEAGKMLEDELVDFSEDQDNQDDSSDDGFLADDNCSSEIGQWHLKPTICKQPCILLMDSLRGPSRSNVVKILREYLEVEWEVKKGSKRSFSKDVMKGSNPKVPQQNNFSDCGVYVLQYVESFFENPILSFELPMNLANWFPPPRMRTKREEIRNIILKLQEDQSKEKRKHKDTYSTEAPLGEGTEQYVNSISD

[10] = biological target: T5, Sentrin-specific protease 8 (Homo sapiens, UniProt Q96LD8); test: SENP8 protease inhibitors, SAR follow-up, biochemical, luminescence, set 2 (AID 588601); type: functional
T5 sequence (Q96LD8 whole entry): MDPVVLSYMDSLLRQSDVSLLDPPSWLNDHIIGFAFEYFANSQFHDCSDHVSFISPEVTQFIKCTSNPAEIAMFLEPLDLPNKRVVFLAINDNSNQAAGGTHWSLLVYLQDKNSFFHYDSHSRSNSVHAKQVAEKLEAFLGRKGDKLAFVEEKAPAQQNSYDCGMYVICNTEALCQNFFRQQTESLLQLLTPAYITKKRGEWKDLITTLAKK

Caspase-3 [11] = biological target: T6, Caspase-3 (Homo sapiens, UniProt P42574); test: caspase-3 inhibitors as off-family protease, SAR follow-up, selectivity assay for SENP protease inhibitor project, biochemical, luminescence, set 2 (AID 588599); type: functional
T6 sequence (P42574 whole entry): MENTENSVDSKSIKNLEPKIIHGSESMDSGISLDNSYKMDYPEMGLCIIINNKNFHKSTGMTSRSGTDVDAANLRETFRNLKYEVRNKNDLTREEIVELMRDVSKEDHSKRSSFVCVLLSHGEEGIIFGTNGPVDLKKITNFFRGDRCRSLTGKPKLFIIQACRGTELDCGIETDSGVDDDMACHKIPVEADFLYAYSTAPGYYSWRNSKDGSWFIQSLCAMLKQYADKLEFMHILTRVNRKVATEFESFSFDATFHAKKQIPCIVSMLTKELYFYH

Caspase-3 [12] = biological target: T6, Caspase-3; test: SAR Analysis of small molecule inhibitors of Sentrin-specific proteases (SENPs) using a Caspase-3 Selectivity assay. [Related pubchem assays (depositor defined):AID2540, AID2599, AID434973, AID489001]; type: functional
[13] = biological target: T5, Sentrin-specific protease 8; test: SENP8 protease inhibitors, SAR follow-up, biochemical, luminescence (AID 504501); type: functional
[14] = biological target: T7, Sentrin-specific protease 7 (Homo sapiens, UniProt Q9BQF6); test: SENP7 protease inhibitors, SAR follow-up, biochemical, luminescence, set 2 (AID 588600); type: functional
T7 sequence (Q9BQF6 whole entry): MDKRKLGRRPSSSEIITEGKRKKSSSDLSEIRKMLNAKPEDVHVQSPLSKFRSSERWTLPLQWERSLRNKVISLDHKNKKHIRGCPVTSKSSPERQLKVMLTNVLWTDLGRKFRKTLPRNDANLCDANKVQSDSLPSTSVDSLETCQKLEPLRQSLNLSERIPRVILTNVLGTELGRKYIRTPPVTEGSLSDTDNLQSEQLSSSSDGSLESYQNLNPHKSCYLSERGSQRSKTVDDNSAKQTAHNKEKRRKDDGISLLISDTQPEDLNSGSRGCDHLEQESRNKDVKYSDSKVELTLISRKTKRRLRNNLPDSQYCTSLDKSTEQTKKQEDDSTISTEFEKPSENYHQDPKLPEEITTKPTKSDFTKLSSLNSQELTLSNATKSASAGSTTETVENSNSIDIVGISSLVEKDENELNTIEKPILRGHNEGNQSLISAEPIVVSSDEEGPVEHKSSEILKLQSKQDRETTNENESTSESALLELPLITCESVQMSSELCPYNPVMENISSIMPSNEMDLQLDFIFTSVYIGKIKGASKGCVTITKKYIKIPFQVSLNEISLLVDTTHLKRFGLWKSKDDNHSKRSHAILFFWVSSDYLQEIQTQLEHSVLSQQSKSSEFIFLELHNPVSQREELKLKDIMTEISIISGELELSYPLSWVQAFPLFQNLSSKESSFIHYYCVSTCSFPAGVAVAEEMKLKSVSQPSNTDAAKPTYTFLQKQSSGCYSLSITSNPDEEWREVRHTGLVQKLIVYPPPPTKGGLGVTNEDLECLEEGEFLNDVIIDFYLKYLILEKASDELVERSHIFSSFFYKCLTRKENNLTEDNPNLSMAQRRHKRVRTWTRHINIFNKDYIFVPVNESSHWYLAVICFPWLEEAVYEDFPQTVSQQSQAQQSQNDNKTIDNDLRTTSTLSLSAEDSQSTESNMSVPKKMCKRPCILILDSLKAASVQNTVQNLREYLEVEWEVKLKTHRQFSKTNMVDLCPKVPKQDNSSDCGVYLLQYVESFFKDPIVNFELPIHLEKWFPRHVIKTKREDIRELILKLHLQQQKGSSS

[15] = biological target: T7, Sentrin-specific protease 7; test: SENP7 protease inhibitors, SAR follow-up, biochemical, luminescence (AID 504497); type: functional
[16] = biological target: T4, Sentrin-specific protease 6; test: SENP6 protease inhibitors, SAR follow-up, biochemical, luminescence, set 2 (AID 588598); type: functional

Sequence of Glycogen synthase kinase-3 alpha (P49840 whole entry): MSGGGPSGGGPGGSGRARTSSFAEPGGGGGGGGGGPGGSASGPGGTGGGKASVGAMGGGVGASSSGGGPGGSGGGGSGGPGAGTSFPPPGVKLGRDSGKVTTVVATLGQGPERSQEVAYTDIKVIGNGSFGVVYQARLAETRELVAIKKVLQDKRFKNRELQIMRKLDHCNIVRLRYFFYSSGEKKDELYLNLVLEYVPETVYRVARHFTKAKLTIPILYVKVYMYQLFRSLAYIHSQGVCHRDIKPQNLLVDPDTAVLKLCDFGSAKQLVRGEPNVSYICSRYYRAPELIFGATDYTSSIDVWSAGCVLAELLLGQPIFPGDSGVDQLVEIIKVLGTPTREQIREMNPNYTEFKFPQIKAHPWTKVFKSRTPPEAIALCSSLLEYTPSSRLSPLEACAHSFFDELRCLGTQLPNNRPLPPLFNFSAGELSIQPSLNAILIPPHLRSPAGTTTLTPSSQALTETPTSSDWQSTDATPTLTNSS
Sequence of Beta-lactamase (Salmonella choleraesuis (strain SC-B67), UniProt Q5J463) (Q5J463 whole entry, the tested form may be a part): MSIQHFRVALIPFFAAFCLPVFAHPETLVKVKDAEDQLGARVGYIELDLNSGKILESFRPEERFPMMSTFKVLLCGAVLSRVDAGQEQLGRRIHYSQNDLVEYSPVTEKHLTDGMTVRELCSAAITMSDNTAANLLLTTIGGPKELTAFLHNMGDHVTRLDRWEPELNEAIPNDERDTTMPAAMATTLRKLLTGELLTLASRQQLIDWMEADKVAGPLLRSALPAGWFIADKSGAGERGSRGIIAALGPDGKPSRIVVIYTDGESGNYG
Sequence of Cyclin-dependent kinase 5/CDK5 activator 1 (Q00535 whole entry): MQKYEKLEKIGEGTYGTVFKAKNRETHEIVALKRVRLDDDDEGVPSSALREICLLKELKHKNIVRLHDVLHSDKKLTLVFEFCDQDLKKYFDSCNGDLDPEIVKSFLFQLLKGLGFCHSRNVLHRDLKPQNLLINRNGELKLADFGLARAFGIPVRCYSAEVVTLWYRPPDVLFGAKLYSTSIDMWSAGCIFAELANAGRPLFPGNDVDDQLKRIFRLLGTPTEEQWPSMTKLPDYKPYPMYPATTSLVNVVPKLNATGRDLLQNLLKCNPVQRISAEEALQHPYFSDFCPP
Sequence of Cyclin-dependent kinase 5/CDK5 activator 1 (Q15078 whole entry, further chain): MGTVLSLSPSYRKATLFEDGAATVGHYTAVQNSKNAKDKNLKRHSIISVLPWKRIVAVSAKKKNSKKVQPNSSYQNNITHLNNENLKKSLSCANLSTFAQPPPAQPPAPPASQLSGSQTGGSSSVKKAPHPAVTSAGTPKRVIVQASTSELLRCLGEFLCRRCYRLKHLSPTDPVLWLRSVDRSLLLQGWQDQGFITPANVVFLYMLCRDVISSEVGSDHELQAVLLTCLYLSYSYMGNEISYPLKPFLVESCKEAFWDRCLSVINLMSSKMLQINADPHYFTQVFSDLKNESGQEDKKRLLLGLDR
Sequence of Glycogen synthase kinase-3 beta (P49841 whole entry): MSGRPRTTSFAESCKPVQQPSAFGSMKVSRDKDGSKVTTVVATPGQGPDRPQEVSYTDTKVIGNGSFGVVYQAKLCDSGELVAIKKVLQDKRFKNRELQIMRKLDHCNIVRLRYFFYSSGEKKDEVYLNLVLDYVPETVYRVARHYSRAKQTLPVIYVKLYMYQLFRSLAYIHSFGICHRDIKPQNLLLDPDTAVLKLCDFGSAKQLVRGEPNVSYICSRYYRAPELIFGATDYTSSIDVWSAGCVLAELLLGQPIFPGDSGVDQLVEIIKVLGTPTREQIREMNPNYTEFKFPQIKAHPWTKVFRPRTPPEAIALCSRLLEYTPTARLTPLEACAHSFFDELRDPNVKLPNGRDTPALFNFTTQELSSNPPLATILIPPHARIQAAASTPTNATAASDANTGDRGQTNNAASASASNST
Sequence of Beta Lactamase (Q932Y6 whole entry): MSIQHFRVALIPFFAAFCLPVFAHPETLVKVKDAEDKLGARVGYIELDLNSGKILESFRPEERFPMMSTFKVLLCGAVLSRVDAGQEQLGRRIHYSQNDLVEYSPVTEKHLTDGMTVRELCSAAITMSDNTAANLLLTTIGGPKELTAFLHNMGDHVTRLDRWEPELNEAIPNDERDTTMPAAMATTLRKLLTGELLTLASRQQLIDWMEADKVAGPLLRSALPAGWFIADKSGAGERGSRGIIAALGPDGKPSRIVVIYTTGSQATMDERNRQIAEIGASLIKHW
Sequence of Beta-lactamase (Pseudomonas aeruginosa, UniProt Q79MP6) (Q79MP6 whole entry): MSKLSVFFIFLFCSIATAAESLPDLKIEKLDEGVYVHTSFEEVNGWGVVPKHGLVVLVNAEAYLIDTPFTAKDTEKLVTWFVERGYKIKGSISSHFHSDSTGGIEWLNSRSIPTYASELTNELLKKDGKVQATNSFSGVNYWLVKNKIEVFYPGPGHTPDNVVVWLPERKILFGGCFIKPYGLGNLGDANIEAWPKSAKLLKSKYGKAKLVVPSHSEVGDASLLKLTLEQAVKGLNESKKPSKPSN

CCN(CC)c1ccc(/C=C/C(=O)c2ccc(Br)cc2)cc1
EC50 [1]: 13.8 µM (inconclusive) | EC50 [2]: 13.5 µM (inconclusive) | IC50 (Beta-lactamase [3]): 3.09 µM (active) | IC50 (CHO): > 49.7 µM (inactive) | IC50 (Beta Lactamase): 3.82 µM (active) | IC50 (Beta-lactamase [4]): 11 µM (inactive)

CN(Cc1ccc(F)cc1)C(=O)c1sccc1-c1ccccc1
EC50 [5]: 18.2 µM (active)

O=C(CN1C(=O)CCC1=O)Nc1cccc2c1C(=O)NC2=O
AC50 [6]: 0.261 µM (active) | AC50 [7]: 20.2 µM (active) | AC50 [8]: 0.459 µM (active)

CCCCc1ccc2nc(NC(=O)c3ccco3)sc2c1
IC50 [9]: 1.8 µM (active) | IC50 [10]: 2.95 µM (active) | IC50 (Caspase-3 [11]): 3.36 µM (active) | IC50 (Caspase-3 [12]): 4 µM (active) | IC50 [13]: 2 µM (active) | IC50 [14]: 3.3 µM (active) | IC50 [15]: 1.6 µM (active) | IC50 [16]: 2.89 µM (active)
